{"source": "patent US12089542B2", "about": "“Subsurface drip irrigation (SDI) lines enhanced with essential oils” (Metzerplas Cooperative Agricultural Organization Ltd., priority 2020, dated 2024)", "key": {"[1]": {"test_system": "mash bean seeds", "test": "Combination of active ingredients: mash bean root development in open jars with ARC2 films", "format": "in vivo", "settings": "7% in ARC2 film", "protocol": "In order to evaluate the efficacy of Thymol relative to another EO, and to see if combination could result in synergistic activity, an additional experiment was conducted using ARC2 polymer (Cloisite 15A 10 wt % nanoclay) with mash bean seeds in open jars. Cotton wool was placed in the jar as a substrate in the center of which the seeds were sown. Three types of EOs were incorporated into the ARC2 polymer films (7% Thymol, 7% pelargonic acid, and 3.5% Thymol/3.5% pelargonic acid) with a dimension of 1 cm width, 3 cm length, and 3 mm thickness were tested and compared to a reference sample (without EO). Each film was placed adjacent to the jar wall. Seeds were watered once a day for 14 weeks."}, "[2]": {"test_system": "cucumber seeds", "test": "Bioassay of Thymol activity on plant health and development, cucumber", "format": "in vivo", "protocol": "(§1) In order to determine the suitability of Thymol as an anti-root (AR) agent in a variety of agricultural settings, Thymol activity was tested on different seed types.\n(§2) The experiment was conducted for two months during the spring with an ambient temperature of ±30° C. Plastic boxes of 30 cm length, 20 cm width, and 15 cm height were filled with German Kalsmann peat, coconut fiber, ventilation materials, and slow-release fertilizers as planting substrate.\n(§3) Cucumber, tomato, beetroot, and sweet corn seeds were each sown in two boxes (8 boxes in total); one box of each seed type was used as a negative control and in the other box (experimental) an ARC2-based active film (Cloisite 15A 10 wt % nanoclay; 7% Thymol) was placed adjacent to the box wall to assess Thymol activity [FIG. 12]. The film folded in half, corresponding to the length and width dimensions of the box.\n(§4) For each seed type, both boxes were placed outdoors according to the sun intensity the plant requires. Each seed type was given an appropriate amount of water evenly, using a can."}, "[3]": {"test_system": "Sorghum", "test": "Greenhouse experiment using Sorghum and 5% Thymol, root clogging of SDI drippers", "format": "in vivo", "settings": "for % Clogged drippers / Clogged drippers / Clean drippers: 2.5 months greenhouse; for roots accumulated on top of the pipe in the area of the drippers' holes: FIG. 7; for Clogged drippers / Clean drippers: number of drippers; for Clogged drippers: ARC1 film in pipe or Treflan pipe", "protocol": "In order to confirm the results of Example 1 in a more agricultural settind and in a different pant variety, Sorghum seeds were grown in a TROPICO-type greenhouse (TOP Company), at Kibbutz Metzer (Israel) during the summer season, for 2.5 months.\nIndividual PP (polypropylene) cases were built for seed beds, with the dimensions of 40 cm height, 20 cm width, and 5 meters length. ARC1-based active films were inserted into PE SDI pipes as in Example 1, and activity of thymol as a root inhibitor was compared to that of TREFLAN chemical herbicide (positive control), as well as to herbicide free pipe used as a negative control.\nThe pipes were placed 15 cm above the bed's bottom, mimicking a buried drip irrigation situation at a realistic ‘field depth’ for the SDI system. Holes were drilled at the bed's edges to allow easy access to the initial and the last pipe and to enable simple irrigation and fertilization control.\nThe seed beds were filled with ‘Ram 8’-type (Tuff Merom Golan), a professional planting substrate, 80% coarse peat/20% coconut composition.\n“Bulldozer”-type sorghum seeds, supplied by CTS Company, were sown. Sorghum is categorized as a classical field-growth plant and characterized by a robust and aggressive root system with secondary growth ability after ‘green’ harvesting without inflorescence.\nThe sowing process corresponded to field sowing. Eight seeds per meter were sown at 2.5 cm deep, with 12.5 cm sowing intervals.\nIrrigation regime was determined differentially, taking into consideration climate data and irrigation type. During the first week from sowing, the irrigation carried out using sprinklers without fertilization. After sprouting and germination, the irrigation was performed through underground drip irrigation only, accompanied by proportional fertilization, “fertilizer-all”-type 17-10-27, with trace elements. The level of fertilizer in irrigation water was about 30 ppm nitrogen. In contrast to example 1, irrigation and fertilization regimes performed were minimal to create ‘starvation’ and cause the roots to aggressively migrate towards the drippers' holes in search of water and fertilizer."}, "[4]": {"test_system": "beetroot seeds", "test": "Bioassay of Thymol activity on plant health and development, beetroot", "format": "in vivo", "settings": "ARC2 film (7% Thymol) adjacent to box wall", "protocol": "as §1, §2, §3, §4"}, "[5]": {"test": "Quantitative analysis of Thymol concentration remaining in the film (extraction, Gibbs reagent, UV-visible)", "format": "physicochemical", "protocol": "The amount of Thymol remaining in the films immediately after processing and at the end of each experiment was determined by UV-visible 1650PC spectrophotometer (Shimadzu), through extraction. The procedure is suitable for different phenolic EOs and is based on Gibbs reagent (2,6-dichlorobenzoquinone 4-chloroimine).\nBriefly, different Thymol-active films were cut to small pieces, weighed, and extracted by refluxing with 2-propanol at a ratio of 500 mg film/25 ml propanol, for 2 hours. To 100 ml volumetric flasks containing 10 ml of a standard Buffer solution of Boric Acid+Potassium Chloride, 1 ml of the extraction solution, 4 mL of 2-propanol, and 1 ml of Gibbs reagent solution was added. The solution was allowed to stand for 15 min to enable the reaction to occur fully. The resulting violet water-soluble dye has a maximum absorption at 590 nm wavelength. Thymol concentration retained in the film, as a proportion of the nominal concentration, was calculated from a calibration curve. Two replicates were measured for each standard."}, "[6]": {"test_system": "root growth", "test": "Cumulative data from examples 1 through 4: Thymol concentration and root growth", "format": "in vivo", "settings": "low concentrations; at higher concentrations anti-root activity"}, "[7]": {"test_system": "tomato seeds", "test": "Bioassay of Thymol activity on plant health and development, tomato", "format": "in vivo", "settings": "ARC2 film (7% Thymol) adjacent to box wall", "protocol": "as §1, §2, §3, §4"}, "[8]": {"test_system": "mash bean seeds", "test": "Inhibition of root penetration in subsurface pipes by Thymol-active based film (5%), lab planters", "format": "in vivo", "source_text": "Holes were drilled at the bottom for water drainage. PE pipe was specially manufactured by METZERPLAS (Israel), with a coating that prevents diffusion of materials through the PE matrix. Pipe diameter 16 mm with a wall thickness of 0.9 mm. A VARDIT 16-type adjusted dripper was selected, with a flow rate of 1.2 liters/hour for each dripper spaced 20 cm apart across the pipes, which were placed 5 cm from the planter base. An ARC1-based active film (Cloisite 15 3% wt and Thymol 5%) was inserted to one pipe [FIG. 2] and its activity was compared with another pipe with no active agent, used as a negative control.\nThe planting substrate was Perlite mixed with Hydroton, and mash bean seeds were sown after surface-sterilization with 10% […], for 20 min, to avoid possible inhibition caused by toxins from fungi or bacteria. Seeds were then rinsed with an abundance of distilled water 20 g of seeds were sown 7 cm deep in each flowerbox.\nA high ratio of seeds:volume was intentionally used to increase the chance of root intrusion.\nIrrigation regimen was set at four times a day for ten minutes. The experiment was conducted in a lab, with light supplied 24 hours a day, and room temperature±25° C. After twenty days, the drippers were opened to examine whether the Thymol was able to function as an anti-root (AR) agent and protect the SDI pipe from root intrusion."}, "[9]": {"test_system": "sweet corn seeds", "test": "Bioassay of Thymol activity on plant health and development, sweet corn", "format": "in vivo", "settings": "ARC2 film (7% Thymol) adjacent to box wall", "protocol": "as §1, §2, §3, §4"}, "[10]": {"test_system": "helianthus seeds", "test": "Helianthus seeds in planters with 7% Thymol (ARC2 film in pipe)", "format": "in vivo", "protocol": "In order to evaluate the effect of increasing the amount of Thymol, an additional experiment was conducted using ARC2 polymer (Cloisite 15A 10 wt % nanoclay; 7% Thymol). The experiment was conducted on helianthus seeds during the summer season, temperature above 30° C., for two months.\nPlanter dimensions were 110 cm length, 10 cm width, and 15 cm height. The pipes were placed 5 cm from the planter base, where holes were drilled for drainage.\nOne planter contained negative control pipe, while ARC2-based active film (experimental) was inserted to pipe in experimental planters as in examples 1 and 2.\nPotting soil for plant growth was a mixture of German Kalsmann peat, coconut fiber, ventilation materials, and slow-release fertilizers, mixed with Perlite.\nThirty seeds were sown in two columns at 1 cm depth and 7 cm intervals.\nIrrigation cycle was set twice daily for three minutes.\nAs in previous examples, the number of seeds sown relative to the planter size was large and irrigation regime was minimal to increase the root-intrusion tendency."}, "[11]": {"settings": "beds opened at end of experiment"}}, "data": [{"smiles": "CCCCCCCCC(=O)O", "note": "[Pelargonic acid]", "values": [{"measurement": "effect on root growth", "setting": "[1]; after two weeks, FIG. 18", "result": "inhibitory effect on root growth compared to the reference sample, but the effect was less"}]}, {"smiles": "Cc1ccc(C(C)C)c(O)c1", "note": "[Thymol]", "values": [{"measurement": "germination rate compared with control box", "setting": "[2]; ARC2 film (7% Thymol) adjacent to box wall", "result": "faster"}, {"measurement": "number of germinated seeds compared with control box", "setting": "[2]; FIG. 13", "result": "greater"}, {"measurement": "seedlings' growth rate compared with control box", "setting": "[2]; FIG. 13, after 43 days", "result": "continued to be faster"}, {"measurement": "time until 6 seeds germinated", "setting": "[2]; FIG. 13, control box 17 days", "result": 11, "unit": "days"}, {"measurement": "% Clogged drippers", "setting": "[3]; listed as Thymol 1", "result": 0, "unit": "%"}, {"measurement": "% Clogged drippers", "setting": "[3]; listed as Thymol 2", "result": 4.76, "unit": "%"}, {"measurement": "roots accumulated on top of the pipe in the area of the drippers' holes", "setting": "[3]; [11]", "result": "lower than that obtained for the negative control"}, {"measurement": "effect on roots development / harm to the crop under cultivation", "setting": "[3]; in vivo", "result": "less harmful to the crop under cultivation than Treflan"}, {"measurement": "efficacy in deterring roots from dripper openings relative to Treflan", "setting": "[3]; in vivo", "result": "roughly as effective as Treflan"}, {"measurement": "Clogged drippers", "setting": "[3]", "result": "one"}, {"measurement": "Clogged drippers", "setting": "[3]; listed as Thymol 1", "result": 0}, {"measurement": "Clogged drippers", "setting": "[3]; listed as Thymol 2", "result": 1}, {"measurement": "Clean drippers", "setting": "[3]; listed as Thymol 1", "result": 15}, {"measurement": "Clean drippers", "setting": "[3]; listed as Thymol 2", "result": 20}, {"measurement": "germination rate compared with control box", "setting": "[4]", "result": "faster"}, {"measurement": "amount of Thymol remaining in the film", "setting": "[5]; after 2 months in soil, film in pipe, welded outside or at a distance", "result": "around 5 % of the amount nominally incorporated in the film prior to processing"}, {"measurement": "Thymol concentration in the film below which inhibitory activity decreases", "setting": "[5]; initial concentration at the beginning of the manufacturing process", "result": "about 9 % of the initial concentration"}, {"measurement": "Thymol concentration remaining in the film, sorghum experiment versus mash bean experiment", "setting": "[5]; two and a half months (sorghum) vs two months (mash bean)", "result": "slightly higher"}, {"measurement": "concentration at which Thymol can stimulate root growth", "setting": "[6]", "result": "< 0.4", "unit": "wt %"}, {"measurement": "root inhibitory effect", "setting": "[1]; after 3 weeks, FIG. 19", "result": "best root inhibitory effect"}, {"measurement": "germination rate compared with control box", "setting": "[7]", "result": "faster"}, {"measurement": "root penetration of drippers", "setting": "[8]; drippers opened after twenty days, ARC1 film, Thymol 5%, in pipe", "result": "remained free of roots"}, {"measurement": "number of germinated seeds compared with reference planter", "setting": "[8]; first four days, ARC1-based active film (Cloisite 15 3% wt, Thymol 5%) inserted in pipe", "result": "greater"}, {"measurement": "growth rate of roots and seedlings compared with reference planter", "setting": "[8]; up to two weeks, ARC1 film, Thymol 5%, in pipe", "result": "faster"}, {"measurement": "germination rate compared with control box", "setting": "[9]", "result": "faster"}, {"measurement": "germination rate compared with negative control planter", "setting": "[10]; ARC2 film (Cloisite 15A 10 wt %, 7% Thymol) in pipe", "result": "faster"}, {"measurement": "number of helianthus flowers", "setting": "[10]; after 55 days, control planter 19", "result": 24}, {"measurement": "drippers penetrated by roots", "setting": "[10]; out of five drippers, end of experiment (two months), control three out of five", "result": "two"}, {"measurement": "seedling growth rate compared with control planter", "setting": "[10]; until plants reached maximum height", "result": "remained faster"}]}, {"smiles": "CCCN(CCC)c1c([N+](=O)[O-])cc(C(F)(F)F)cc1[N+](=O)[O-]", "note": "[Treflan, trifluralin, reference compound]", "values": [{"measurement": "% Clogged drippers", "setting": "[3]", "result": 0, "unit": "%"}, {"measurement": "soil moisture in proximity to drippers", "setting": "[3]; beds opened at end of experiment, FIG. 6, compared with negative control", "result": "higher degree of moisture"}, {"measurement": "roots accumulated on top of the pipe in the area of the drippers' holes", "setting": "[3]; [11]", "result": "no root concentration areas are observed"}, {"measurement": "root state of drippers", "setting": "[3]; end of experiment", "result": "root-clean"}, {"measurement": "Clean drippers", "setting": "[3]", "result": 20}, {"measurement": "Clogged drippers", "setting": "[3]", "result": 0}, {"measurement": "effect on roots development / harm to the crop under cultivation", "setting": "[3]; subjective evidence", "result": "more aggressive and detrimental effect on roots development"}]}]}
